Source: patent publication US20250381412A1, “METHODS AND SYSTEMS FOR NEUROMODULATION” (Cardionomix, Inc., priority 2022, published 2025)

System: normal, non-HF ovine model
Test: Heartbeat-by-heartbeat changes in right and left ventricle contractility (max dP/dt as surrogate) after an injection
Assay type: in vivo
Conditions: pressure max (dP/dt) used as surrogate for contractility, after injection (calcium: 5 mL)
Source text: The correlation was a heartbeat-by-heartbeat analysis. Pressure measurements, taken by a Millar catheter comprising a MEMS pressure sensor, in units of max (dP/dt) was used as a surrogate for contractility.
The first change, a dobutamine injection, provided a very high contractility increase greater than 500%. The average correlation between right ventricle contractility and left ventricle contractility was very good at 0.91, where 1.00 is a perfect correlation. Accordingly, if a subject is given a dobutamine injection, measuring changes to right ventricle contractility can provide accurate information about changes to left ventricle contractility. The first change was repeated three times.
The second change, calcium injection at 5 mL, provided a contractility increase of about 20%. […] The average correlation between right […] contractility and left ventricle contractility using a Millar (MEMS) sensor on a catheter was very good at 0.91. The average correlation between right ventricle contractility and left ventricle contractility using a fluid-filled lumen of a Swan-Ganz catheter in communication with an external pressure sensor was also very good at 0.87. Accordingly, under certain circumstances such as measurement of an animal (normal, non-HF ovine model) model, if a subject is given a calcium injection, measuring changes to right ventricle contractility with a MEMS sensor or a fluid filled lumen can provide accurate information about changes to left ventricle contractility.

SMILES	Contractility % Increase [%]	Contractility % Increase (listed as calcium)	Contractility % Increase (listed as dobutamine)
[Ca+2] [Calcium, calcium]	~20	about 20%	
CC(CCc1ccc(O)cc1)NCCc1ccc(O)c(O)c1 (stereo not shown) [Dobutamine Injection, dobutamine]	>500		greater than 500%
